{"source": "paper PMC6273400", "about": "“Enhancement of Exposure and Reduction of Elimination for Paeoniflorin or Albiflorin via Co-Administration with Total Peony Glucosides and Hypoxic Pharmacokinetics Comparison” (Molecules, 2016)", "key": {"[1]": {"assay": "Pharmacokinetics in rat plasma after intragastric administration, normoxia (UPLC-MS/MS)", "format": "in vivo, Sprague-Dawley rats", "details": "mean ± SD; for clearance / Cmax / Tmax / half-life: n = 6; for Cmax / Tmax / half-life / AUC(0-t) / MRT last: male, Sprague-Dawley, rat, plasma, po; for AUC(0-t): n = 6, read-out: AUC(0→24 h) (converted); for MRT last: n = 6, read-out: MRT(0→24 h) (converted)", "procedure": "(§1) Male Sprague-Dawley (SD) rats (250 g ± 20 g) were purchased from the Animal Center of Capital Medical University (ACCMU, Beijing, China). Animals were housed in individual cages with free access to food and water in a room with the illumination (a 12 h light and dark cycle), temperature and relative humidity controlled automatically. Within five days before experiments a jugular vein in each rat under anaesthesia was cannulated by insertion of an indwelling cannula for blood sampling. After fully recovery, the rats were housed with unlimited access to food and water except for fasting 12 h before the experiment with water available. The seven groups of PF/AF and TGP were intragastrically administered to the Sprague-Dawley rats, respectively. All the animal experiments were carried out in accordance with the Guide for the Care and Use of Laboratory Animals as adopted and promulgated by the National Health Ministry of China. The protocols of animal experiments had been approved by the Animal Center of Capital Medical University.\n(§2) The UPLC-MS/MS system consisted of a UPLC system (Agilent Technologies, Palo Alto, CA, USA) including a G4220A 1290 binary pump, a G1379A vacuum degasser, a G4226 autosampler, a G1330B 1290 thermostat and triple quadrupole mass spectrometer equipped with an electrospray ionization (ESI) source (Series 6490, Agilent Technologies). The system was controlled with the Agilent Technologies Mass Hunter Workstation B.06.00 software for data acquisition and analysis. The analytes were separated on ZORBAX Eclipse plus C18 column (2.1 mm × 100 mm, 3.5 μm). The mobile phase consisted of 0.2% (v/v) formic acid in water (A) and methanol (B). The mobile phase conditions were 79:21 (A:B, v/v) and the flow rate was 0.4 mL/min. The column temperature was maintained at 30 °C. The sample injection volume was 5 μL. The detection was performed on the triple quadrupole mass spectrometer equipped with electrospray source (Series 6490, Agilent Technologies). High purity nitrogen served as both the nebulizing and sheath gas. The optimized parameters in the positive or negative were as follows: capillary voltage at 3 kV, nozzle voltage at 1.5 kV, gas temperature of 200 °C and sheath gas temperature of 250 °C. The quantification was performed by multiple reaction monitoring (MRM) via precursor-to-product ion pair. AF and IS were detected in positive ion mode while PF was detected in negative ion mode. The parameters were set as follows: m/z 525→449 for PF (fragmentor energy, 380 eV; collision energy, 10 eV; dwell time, 80 ms); m/z 481→105 for AF (fragmentor energy, 380 eV; collision energy, 28 eV; dwell time, 80 ms); m/z 417→297 for IS (fragmentor energy, 380 eV; collision energy, 25 eV; dwell time, 80 ms).\n(§3) A 100 μL aliquot of plasma sample was added with 50 μL 1% (v/v) formic acid in water and 50 μL IS working solution (the IS, concentration of 100 ng/mL) and 300 μL acetonitrile. After vortexing for 2 min and centrifugation at 13,000× g for 10 min, the sample was transferred to another Axygen tube and evaporated to dryness in a rotary evaporator at 40 °C. The residue was reconstituted in 100 μL of water–methanol (79:21, v/v), then an aliquot of 5 μL was injected into the UPLC-MS/MS system for analysis.\n(§4) The male Sprague-Dawley (SD) rats were randomly divided into seven groups (six rats in each group), which were housed with unlimited access to food and water, except for fasting 12 h before the experiment with water ad libitum. The hypoxic rats were exposed to a fractional concentration of 9.0% O2 after intragastric administration of drug for hypoxia pharmacokinetics experiments. The compound PF (80 mg/kg, normoxia and hypoxia), AF (14 mg/kg, normoxia and hypoxia), combination administration of PF (80 mg/kg) and AF (14 mg/kg), the two dosages of TPG (PF with 80 mg/kg, and AF with 14 mg/kg) were intragastrically administered to the rats, respectively. […]"}, "[2]": {"assay": "Pharmacokinetics in rat plasma after intragastric administration, hypoxia (9.0% O2)", "format": "in vivo, Sprague-Dawley rats", "details": "mean ± SD; for clearance / Cmax / Tmax / half-life: n = 6; for Cmax / Tmax / half-life / AUC(0-t) / MRT last: male, Sprague-Dawley, po; for AUC(0-t): n = 6, read-out: AUC(0→24 h) (converted); for MRT last: n = 6, read-out: MRT(0→24 h) (converted)", "procedure": "as §1, §2, §3, §4"}, "[3]": {"assay": "Stability of the analytes in SD rat plasma (QC samples)", "format": "in vitro ADME", "details": "24 h after pretreatment, three freeze (−80 °C)/thaw (room temperature) cycles, 30 days at −80 °C", "procedure": "The stabilities of the analytes in the SD rat plasma were investigated using the QC sample solutions stored under different temperature conditions for different periods of time which likely to be encountered during sample storage and the analytical process. The QC samples were tested for post-treatment, three freeze-thaw cycles and long-term stabilities. The post-treatment was evaluated by placing the QC samples in the autosampler for 24 h. And for freeze-thaw cycle stability assessment, the QC samples were repeatedly freezed and thawed for three cycles at −80 °C to 20 °C. The long-term stability was carried out via placing the QC samples at −80 °C for at least 30 days."}, "[4]": {"details": "14 mg/kg, AF (14 mg/kg) combined with PF (80 mg/kg), intragastric"}, "[5]": {"details": "14 mg/kg, AF alone, 14 mg/kg intragastric, normoxia"}, "[6]": {"details": "14 mg/kg, AF in TPG (TPG dose with AF 14 mg/kg), intragastric"}, "[7]": {"details": "AF 14 mg/kg single intragastric"}, "[8]": {"details": "80 mg/kg, PF (80 mg/kg) combined with AF (14 mg/kg), intragastric"}, "[9]": {"details": "80 mg/kg, PF alone, 80 mg/kg intragastric, normoxia"}, "[10]": {"details": "80 mg/kg, PF in TPG (TPG dose with PF 80 mg/kg), intragastric"}, "[11]": {"details": "PF 80 mg/kg single intragastric"}}}
{"smiles": "CC12CC(O)C3CC1(OC1OC(CO)C(O)C(O)C1O)C3(COC(=O)c1ccccc1)C(=O)O2", "note": "(centres unmarked) [AF, albiflorin]", "values": [{"measurement": "clearance", "setting": "[1]; AF (14 mg/kg) combined with PF (80 mg/kg), intragastric", "result": "1800 ± 600", "unit": "mL/min/kg"}, {"measurement": "clearance", "setting": "[1]; AF alone, 14 mg/kg intragastric, normoxia", "result": "1700 ± 500", "unit": "mL/min/kg"}, {"measurement": "clearance", "setting": "[1]; AF in TPG (TPG dose with AF 14 mg/kg), intragastric", "result": "1200 ± 400", "unit": "mL/min/kg"}, {"measurement": "Cmax", "setting": "[1]; [4]", "result": "42.4 ± 18.7", "unit": "ng/mL"}, {"measurement": "Tmax", "setting": "[1]; [4]", "result": 0.695, "unit": "h"}, {"measurement": "half-life", "setting": "[1]; [4]", "result": "2.17 ± 0.978", "unit": "h"}, {"measurement": "AUC(0-t)", "setting": "[1]; [4]", "result": 129, "unit": "ng·h/mL"}, {"measurement": "MRT last", "setting": "[1]; [4]", "result": 2.97, "unit": "h"}, {"measurement": "Cmax", "setting": "[1]; [5]", "result": "70.3 ± 19.1", "unit": "ng/mL"}, {"measurement": "Tmax", "setting": "[1]; [5]", "result": 0.445, "unit": "h"}, {"measurement": "half-life", "setting": "[1]; [5]", "result": "1.99 ± 0.495", "unit": "h"}, {"measurement": "AUC(0-t)", "setting": "[1]; [5]", "result": 142, "unit": "ng·h/mL"}, {"measurement": "MRT last", "setting": "[1]; [5]", "result": 2.25, "unit": "h"}, {"measurement": "Cmax", "setting": "[1]; [6]", "result": "56.9 ± 12.9", "unit": "ng/mL"}, {"measurement": "Tmax", "setting": "[1]; [6]", "result": 0.528, "unit": "h"}, {"measurement": "half-life", "setting": "[1]; [6]", "result": "3.59 ± 1.53", "unit": "h"}, {"measurement": "AUC(0-t)", "setting": "[1]; [6]", "result": 196, "unit": "ng·h/mL"}, {"measurement": "MRT last", "setting": "[1]; [6]", "result": 3.76, "unit": "h"}, {"measurement": "clearance", "setting": "[2]; [7]", "result": "1600 ± 700", "unit": "mL/min/kg"}, {"measurement": "Cmax", "setting": "[2]; [7]", "result": "49.1 ± 16.2", "unit": "ng/mL"}, {"measurement": "Tmax", "setting": "[2]; [7]", "result": 0.583, "unit": "h"}, {"measurement": "half-life", "setting": "[2]; [7]", "result": "2.19 ± 0.958", "unit": "h"}, {"measurement": "AUC(0-t)", "setting": "[2]; [7]", "result": 138, "unit": "ng·h/mL"}, {"measurement": "MRT last", "setting": "[2]; [7]", "result": 2.16, "unit": "h"}, {"measurement": "stability in rat plasma", "setting": "[3]", "result": "stable"}]}
{"smiles": "C[C@@]12C[C@@]3(O)O[C@@H](O1)[C@]1(COC(=O)c4ccccc4)[C@H]3C[C@@]12O[C@@H]1O[C@H](CO)[C@@H](O)[C@H](O)[C@H]1O", "note": "[PF, paeoniflorin]", "values": [{"measurement": "clearance", "setting": "[1]; PF (80 mg/kg) combined with AF (14 mg/kg), intragastric", "result": "1600 ± 400", "unit": "mL/min/kg"}, {"measurement": "clearance", "setting": "[1]; PF alone, 80 mg/kg intragastric, normoxia", "result": "2300 ± 400", "unit": "mL/min/kg"}, {"measurement": "clearance", "setting": "[1]; PF in TPG (TPG dose with PF 80 mg/kg), intragastric", "result": "1700 ± 600", "unit": "mL/min/kg"}, {"measurement": "Cmax", "setting": "[1]; [8]", "result": "320 ± 121", "unit": "ng/mL"}, {"measurement": "Tmax", "setting": "[1]; [8]", "result": 0.695, "unit": "h"}, {"measurement": "half-life", "setting": "[1]; [8]", "result": "1.63 ± 0.665", "unit": "h"}, {"measurement": "AUC(0-t)", "setting": "[1]; [8]", "result": 865, "unit": "ng·h/mL"}, {"measurement": "MRT last", "setting": "[1]; [8]", "result": 3.33, "unit": "h"}, {"measurement": "Cmax", "setting": "[1]; [9]", "result": "333 ± 63.6", "unit": "ng/mL"}, {"measurement": "Tmax", "setting": "[1]; [9]", "result": 0.583, "unit": "h"}, {"measurement": "half-life", "setting": "[1]; [9]", "result": "1.81 ± 0.63", "unit": "h"}, {"measurement": "AUC(0-t)", "setting": "[1]; [9]", "result": 595, "unit": "ng·h/mL"}, {"measurement": "MRT last", "setting": "[1]; [9]", "result": 1.83, "unit": "h"}, {"measurement": "Cmax", "setting": "[1]; [10]", "result": "291 ± 141", "unit": "ng/mL"}, {"measurement": "Tmax", "setting": "[1]; [10]", "result": 0.388, "unit": "h"}, {"measurement": "half-life", "setting": "[1]; [10]", "result": "3.91 ± 1.6", "unit": "h"}, {"measurement": "AUC(0-t)", "setting": "[1]; [10]", "result": 902, "unit": "ng·h/mL"}, {"measurement": "MRT last", "setting": "[1]; [10]", "result": 4.81, "unit": "h"}, {"measurement": "clearance", "setting": "[2]; [11]", "result": "3050 ± 540", "unit": "mL/min/kg"}, {"measurement": "Cmax", "setting": "[2]; [11]", "result": "177 ± 55.1", "unit": "ng/mL"}, {"measurement": "Tmax", "setting": "[2]; [11]", "result": 0.847, "unit": "h"}, {"measurement": "half-life", "setting": "[2]; [11]", "result": "1.86 ± 0.475", "unit": "h"}, {"measurement": "AUC(0-t)", "setting": "[2]; [11]", "result": 443, "unit": "ng·h/mL"}, {"measurement": "MRT last", "setting": "[2]; [11]", "result": 2.12, "unit": "h"}, {"measurement": "stability in rat plasma", "setting": "[3]", "result": "stable"}]}
